Results reported in ChEMBL document CHEMBL1143808, “A generally applicable method for assessing the electrophilicity and reactivity of diverse nitrile-containing compounds” (Bioorg Med Chem Lett, 2007).

Tests used:
Type in all cases: ADME, Microsome
[1] = tested on: Liver microsomes; assay: Irreversible covalent binding in human liver microsomes at 100 uM after 30 mins; conditions: 0.5 h
[2] = tested on: Liver microsomes; assay: Irreversible covalent binding in rat liver microsomes after 1 hr
[3] = tested on: Liver microsomes; assay: Irreversible covalent binding in human liver microsomes at 10 uM after 1 hr

Activity [1]	Activity [2]	Activity [3]	Compound
3.6%	550 pmol/mg	460 pmol/mg	N#CN1CCC(NS(=O)(=O)c2ccccc2)C1 (configuration not stated)
0.5%		70 pmol/mg	COCCN1CCC(Cc2ccc(C(=O)NCc3cnc(C#N)nc3NCC(C)(C)C)cc2)CC1
0.06%		7 pmol/mg	[3H]C([3H])([3H])S(=O)(=O)c1ccc(-c2ccc([C@H](N[C@@H](CC(C)C)C(=O)NCC#N)C(F)(F)F)cc2)cc1
